Measured values: patent US20230391765A1, “HETEROBIFUNCTIONAL COMPOUNDS AS DEGRADERS OF ENL” (ICAHN SCHOOL OF MEDICINE AT MOUNT SINAI, priority 2020, published 2023)

Tests used:
[1] = tested on: ENL-dependent MV4; 11 cells; assay: Cell viability (CellTiter-Glo), MV4; 11 cells; assay type: cell-based; settings: 11 cells, 0.5, 1, 2 and 4 μM for 72 h
Procedure, shortened: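 MV4;11 cells (ENL-dependent) were seeded at 2×10^5 cells/mL and exposed to compound or DMSO, mostly for 72 h, with some runs at 3 or 6 days. Concentrations ranged from 10 nM to 10 μM depending on the run. Viability was read by CellTiter-Glo luminescence and normalized to DMSO.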

[2] = tested on: ENL target genes; assay: RT-qPCR of ENL target genes in MOLM13 cells; assay type: cell-based; settings: MOLM13 cells, 0.5, 1, 2, 4 and 8 μM for 24 h
Method: MOLM13 cells were treated with LQ076-122 (FIG. 14A) and LQ081-108 (FIG. 14B) at 0.5, 1, 2, 4, and 8 μM for 24 h. […] RT-qPCR analysis was performed to detect the mRNA levels of selected ENL target genes.
Total RNA was extracted using the RNeasy Plus kit (Qiagen) and reverse-transcribed using the iScript cDNA Synthesis kit (Bio-Rad). RT-qPCR was performed using the Power SYBR Green PCR Master Mix (Applied Biosystems) on the CFX96 Real-Time PCR system (Bio-Rad). Gene expressions were calculated following normalization to 18s rRNA amounts using the comparative cycle threshold (Ct) method.

[3] = tested on: MV4; 11 cells; assay: Apoptosis assay (FITC Annexin V), MV4; 11 cells; assay type: cell-based; settings: 11 cells, 1, 2 and 4 μM for 24 h
Method: Apoptotic cells were measured by the FITC Annexin V Apoptosis Detection Kit (BD Biosciences).
MV4; 11 or MOLM13 cells were seeded at 0.2×10^6 cells/mL density. Cells were treated with DMSO or ENL degraders at indicated concentrations. Each treatment was done in triplicates. After 24 h treatment, cells were collected and washed with ice-cold PBS once and resuspended in 250 μL of 1× binding buffer containing 5 μL of FITC-Annexin V and PI (BD Biosciences). After 15 min incubation at room temperature in the dark, 250 μL of 1× binding buffer was added and flow cytometry analysis was performed.

[4] = tested on: MV4; 11-Luc cells; assay: MV4; 11 disseminated xenograft model, bioluminescence imaging; assay type: in vivo; settings: NSG mice with MV4, 100 mg/kg twice daily IP, three cycles (4 treatment days, 2 resting days)
Method: Immuno-deficient NSG mice were irradiated and transplanted with 5×10^5 MV4; 11-Luc cells through tail-vein injections. Ten days after transplantation, mice (n=5) were treated with 100 mg/kg LQ076-122 or vehicle twice daily through IP injection in cycles. Each cycle contains 4 treatment days followed by 2 resting days. Day 0 is the time that the treatment started. Leukemia progression was monitored by bioluminescence imaging at different time points upon LQ076-122 or vehicle treatment (FIG. 18A). The mean radiances of bioluminescence signal were quantified in FIG. 18B.
Immunodeficient NOD.Cg-Prkdc^scidIl2rg^tm1wil/SzJ (NSG) mice at 6-8 weeks of age were produced at the Van Andel Institute Vivarium and Transgenic Core using breeders purchased from the Jackson laboratory. Mice were pretreated with acidified water and antibiotics for a week before a sublethal dose of total body irradiated (2 Gy). Then mice were transplanted with 0.5×10^6 MV4; 11-Luc cells through tail-vein injection. ENL degrader treatment was started ten days after transplantation with the successful engraftment confirmed by bioluminescence imaging. Mice were randomly assigned to two groups (n=5) and treated with IP injections of either ENL degrader LQ076-122 (100 mg/kg, twice daily) or vehicle. […] Leukemia progression in each animal was monitored by bioluminescence imaging after each treatment cycle. […]

For `Cc1ncsc1-c1ccc(CNC(=O)[C@@H]2C[C@@H](O)CN2C(=O)[C@@H](NC(=O)CCCCCCCCCCNC(=O)c2ccc(C(=O)Nc3ccc4[nH]c(CN5CCC[C@@H]5C)nc4c3)cc2)C(C)(C)C)cc1` [LQ076-122, N^1-(11-(((S)-1-((2S,4R)-4-hydroxy-2-((4-(4-methylthiazol-5-yl)benzyl)carbamoyl)pyrrolidin-1-yl)-3,3-dimethyl-1-oxobutan-2-yl)amino)-11-oxoundecyl)-N^4-(2-(((S)-2-methylpyrrolidin-1-yl)methyl)-1H-benzo[d]imidazol-5-yl)terephthalamide], the “suppression of cell growth (relative cell viability)” value [1] was “selectively suppressed cell growth”, the “ENL target gene expression (mRNA levels)” value [2] was “reduced ENL target gene expression in a concentration-dependent manner” and the induction of apoptosis [3] was “induced apoptosis”. For the same compound, the leukemia progression [4] was “significantly inhibited leukemia progression”.
